The test system of assay [1] is LPS-induced TNF-α production. Kind of assay: In vivo rodent assay, LPS-induced TNF-α production. Conditions: Mus musculus; BALB/cJ female mice, oral 10 mg/kg, LPS 1 mg/kg i.p. 30 min after dosing, serum TNF-α 1 h later. On the procedure:
Mice (BALB/cJ females, Jackson Laboratories) were fasted for 30 min. prior to oral dosing with 5-10 mL/kg of a test compound at 5-50 mg/kg. Thirty minutes after dosing, the animals were injected intraperitoneally with LPS at 1 mg/kg and returned to their cages for 1 h. Animals were anesthetized by CO2, exsanguinated by cardiac puncture and whole blood collected (0.1-0.7 mL). The blood was allowed to clot and serum was transferred to a centrifuge tube. This sample was centrifuged, and serum was collected, aliquoted, and frozen at −80° C. Samples were tested by commercial ELISA's for TNF-α (Endogen for mouse TNF-α). The % inhibition of the test compounds was calculated by the following formula: % inhibition=[1-(sample-BKG)/(CTRL-BKG)]×100.

The subject of the next assay is TNF-α. Description: PBMC whole cell assay (LPS/PBMC, TNF-α ELISA). The following applies: human PBMC, LPS stimulation overnight. The assay is classed as cell-based. On the procedure:
Representative compounds of the present invention were tested in an in vitro whole cell assay using peripheral blood mononuclear cells (“PBMC's”) which were obtained from human blood as follows. Freshly obtained venous blood was anticoagulated with heparin, diluted with an equal volume of phosphate buffered saline (“PBS”) and placed in a sterile tube or other container. Aliquots (30 mL) of this mixture were transferred to centrifuge tubes which were underlaid with Ficoll-Hypaque (15 mL). The prepared tubes were centrifuged at 400×g without braking for 30 min at room temperature. Approximately ½ to ⅔ of the platelet layer above the mononuclear cell band was removed with a pipette. The majority of the mononuclear cell layer was carefully removed using a pipette and these PBMC's were diluted with PBS and spun at 600×g for 15 min. The resulting PBMC's were washed with another portion of PBS and spun at 400×g for 10 min at room temperature. The recovered pellets were diluted in low endotoxin RPMI/1% FCS culture medium and gave a cell concentration of 0.5-2.0×10^6 PMBC/mL. A small volume of the suspension was removed for counting on a hemocytometer and the remaining preparation was centrifuged at 200×g for 15 min at room temperature. The recovered pelleted PMBC's were re-suspended in RPMI/1% FCS to a concentration of 1.67×10^6/mL.
To run the assay, the PBMC suspension (180 μL) was transferred to duplicate wells of a 96-well flat-bottom microtiter plate and incubated for 1 h at 37° C. A solution of test compound (10 μL, prepared at 20×the desired final concentration) was added to each well and the plate was incubated for 1 h at 37° C. A solution (10 μL) of LPS in RPMI/1% FCS (200 ng/mL) was added and the wells were incubated overnight at 37° C. The supernate (100 μL) was removed from each well and diluted with RPMI/1% FCS (400 μL). The samples were analyzed for TNF-α using a commercial ELISA kit (Genzyme).
On the technique in general: ELISA stands for enzyme-linked immunosorbent assay.

The structures appear in SMILES notation.

In the case of `CSc1nccc(-c2c(-c3ccccc3)nc3nc(N)ccn23)n1` [Compound 15, 3-[2-(Methylthio)-4-pyrimidinyl]-2-phenylimidazo[1,2-a]pyrimidin-7-amine], the inhibition in vivo at 10 mg/kg in assay [1] came out at 23%. The compound further yielded an IC50 in the assay on TNF-α of 28 nM.

In assay [1], `Nc1ccn2c(-c3ccncn3)c(-c3ccc(F)cc3)nc2n1` [Compound 24, 2-(4-Fluorophenyl)-3-(4-pyrimidinyl)imidazo[1,2-a]pyrimidin-7-amine] registered an inhibition in vivo at 10 mg/kg of 91%. The compound further registered a half-maximal inhibitory concentration (IC50) with TNF-α of 199 nM. The matching figures for `C[C@H](Nc1nccc(-c2c(-c3cccc(C(F)(F)F)c3)nc3nc(N)ccn23)n1)c1ccccc1` [Compound 9, 3-[2-[[(1S)-1-Phenylethyl]amino]4-pyrimidinyl]-2-[3-(trifluoromethyl)phenyl]imidazo[1,2-a]pyrimidin-7-amine]: 97% and 0.5 nM. The matching figures for `Nc1ccn2c(-c3ccncn3)c(-c3ccccc3)nc2n1` [Compound 16, 2-Phenyl-3-(4-pyrimidinyl)imidazo[1,2-a]pyrimidin-7-amine]: 73% and 304 nM.

In the case of `Nc1ccn2c(-c3ccnc(NCc4ccccc4)c3)c(-c3ccc(F)cc3)nc2n1` [Compound 6, 2-(4-fluorophenyl)-3-[2-[(phenylmethyl)amino]4-pyridinyl]-imidazo[1,2-a]pyrimidin-7-amine], the inhibition in vivo at 10 mg/kg in assay [1] was found to be 42%. Besides, 6 nM corresponded to half-maximal inhibition in the assay with TNF-α (IC50).

Turning to `Nc1ccn2c(-c3ccncc3)c(-c3cccc(Cl)c3)nc2n1` [Compound 25, 2-(3-Chlorophenyl)-3-(4-pyridinyl)imidazo[1,2-a]pyrimidin-7-amine], testing at 10 mg/kg in assay [1] gave an inhibition in vivo of 47%. Further, the IC50 with TNF-α is 162 nM. The corresponding values for `CSc1nccc(-c2c(-c3ccc(F)cc3)nc3nc(N)ccn23)n1` [Compound 10, 2-(4-Fluorophenyl)-3-[2-(methylthio)-4-pyrimidinyl]imidazo[1,2-a]pyrimidin-7-amine] are 68% and 37 nM.

For the compound `C[C@H](Nc1nccc(-c2c(-c3ccc(F)cc3)nc3nc(N)ccn23)n1)C1CCCCC1` [Compound 22, 3-[2-[[(1S)-1-Cyclohexylethyl]amino]-4-pyrimidinyl]-2-(4-fluorophenyl)imidazo[1,2-a]pyrimidin-7-amine], the inhibition in vivo at 10 mg/kg in assay [1] was determined as 74%. The compound further registered an IC50 in the assay on TNF-α of 1 nM. The corresponding values for `CSc1nccc(-c2c(-c3cccc(C(F)(F)F)c3)nc3nc(N)ccn23)n1` [Compound 11, 3-[2-(Methylthio)-4-pyrimidinyl]-2-[3-(trifluoromethyl)phenyl]imidazo[1,2-a]pyrimidin-7-amine] are 38% and 27 nM. The matching figures for `Nc1ccn2c(-c3ccnc(NCc4ccccc4)c3)c(-c3cccc(C(F)(F)F)c3)nc2n1` [Compound 8, 3-[2-[(phenylmethyl)amino]4-pyridinyl]-2-[3-(trifluoromethyl)phenyl]-imidazo[1,2-a]pyrimidin-7-amine]: 19% and 4 nM.

For `Nc1ccn2c(-c3ccncc3)c(-c3cccc(F)c3)nc2n1` [Compound 2, 2-(3-fluorophenyl)-3-(4-pyridinyl)-imidazo[1,2-a]pyrimidin-7-amine], 10 mg/kg produced 100% inhibition in vivo in assay [1]. In the assay on TNF-α, this compound showed an IC50 of 55 nM. In the case of `Nc1ccn2c(-c3ccncn3)c(-c3cccc(C(F)(F)F)c3)nc2n1` [Compound 13, 3-(4-Pyrimidinyl)-2-[3-(trifluoromethyl)phenyl]imidazo[1,2-a]pyrimidin-7-amine], the inhibition in vivo at 10 mg/kg in assay [1] amounted to 85%. The compound further had a half-inhibitory concentration (IC50) in the assay with TNF-α of 278 nM. The matching figures for `COc1nccc(-c2c(-c3ccccc3)nc3nc(N)ccn23)n1` [Compound 23, 3-(2-Methoxy-4-pyrimidinyl)-2-phenylimidazo[1,2-a]pyrimidin-7-amine]: 87% and 90 nM. In assay [1], `Nc1ccn2c(-c3ccncc3)c(-c3cccc(C(F)(F)F)c3)nc2n1` [Compound 7, 3-(4-pyridinyl)-2-[3-(trifluoromethyl)phenyl]-imidazo[1,2-a]pyrimidin-7-amine] registered an inhibition in vivo at 10 mg/kg of 99%. Moreover, in the assay with TNF-α, half-maximal inhibition (IC50) required 35 nM. The compound `Nc1ccn2c(-c3ccncc3)c(-c3ccc(F)cc3)nc2n1` [Compound 1, 2-(4-fluorophenyl)-3-(4-pyridinyl)-imidazo[1,2-a]pyrimidin-7-amine] registered an inhibition in vivo at 10 mg/kg in assay [1] of 100%. Besides, the concentration for half-maximal inhibition (IC50) in the assay on TNF-α amounted to 49 nM. The matching figures for `Nc1ccn2c(-c3ccncc3)c(-c3ccccc3)nc2n1` [Compound 5, 2-phenyl-3-(4-pyridinyl)-imidazo[1,2-a]pyrimidin-7-amine]: 100% and 55 nM. For the compound `CS(=O)(=O)c1nccc(-c2c(-c3ccccc3)nc3nc(N)ccn23)n1` [Compound 17, 3-[2-(Methylsulfonyl)-4-pyrimidinyl]-2-phenylimidazo [1,2-a]pyrimidin-7-amine], the IC50 with TNF-α stood at 3410 nM.

In assay [1], `Nc1ccn2c(-c3ccnc4ccccc34)c(-c3ccc(F)cc3)nc2n1` [Compound 3, 2-(4-fluorophenyl)-3-(4-quinolinyl)-imidazo[1,2-a]pyrimidin-7-amine] came in with an inhibition in vivo at 10 mg/kg of 26%. In the assay on TNF-α, this compound showed an IC50 of 333 nM. The corresponding values for `CS(=O)(=O)c1nccc(-c2c(-c3cccc(C(F)(F)F)c3)nc3nc(N)ccn23)n1` [Compound 18, 3-[2-(Methylsulfonyl)-4-pyrimidinyl]-2-[3-(trifluoromethyl)phenyl]imidazo[1,2-a]pyrimidin-7-amine] are 10% and 520 nM. As for `CSc1nccc(-c2c(-c3cccc(F)c3)nc3nc(N)ccn23)n1` [Compound 12, 2-(3-Fluorophenyl)-3-[2-(methylthio)-4-pyrimidinyl]imidazo[1,2-a]pyrimidin-7-amine], at 10 mg/kg the inhibition in vivo in assay [1] was 51%. In the assay with TNF-α, this compound gave an IC50 of 10 nM. The corresponding values for `C[C@H](Nc1nccc(-c2c(-c3ccccc3)nc3nc(N)ccn23)n1)c1ccccc1` [Compound 19, 2-Phenyl-3-[2-[[(1S)-1-phenylethyl]amino]4-pyrimidinyl]imidazo[1,2-a]pyrimidin-7-amine] are 100% and 0.4 nM. Consider `Nc1ccn2c(-c3ccnc(N4CCCCC4)n3)c(-c3ccccc3)nc2n1` [Compound 14, 2-Phenyl-3-[2-(1-piperidinyl)-4-pyrimidinyl]imidazo[1,2-a]pyrimidin-7-amine], for which the inhibition in vivo at 10 mg/kg in assay [1] was 63%. In the assay with TNF-α, this compound registered a half-inhibitory concentration (IC50) of 8 nM. The compound `Nc1ccn2c(-c3ccncc3)c(-c3ccc(F)c(Cl)c3)nc2n1` [Compound 4, 2-(3-chloro-4-fluorophenyl)-3-(4-pyridinyl)-imidazo[1,2-a]pyrimidin-7-amine] displayed an inhibition in vivo at 10 mg/kg in assay [1] of 100%. The half-maximal inhibitory concentration (IC50) in the assay on TNF-α was 21 nM. On to `COc1ccc(CNc2nccc(-c3c(-c4ccccc4)nc4nc(N)ccn34)n2)cc1` [Compound 20, 3-[[[(4-Methoxyphenyl)methyl]amino]-4-pyrimidinyl]-2-phenylimidazo[1,2-a]pyrimidin-7-amine], for which the half-maximal inhibitory concentration (IC50) in the assay on TNF-α came to 14 nM.

By inhibition in vivo is commonly meant the drop in the measured response relative to a control, in per cent. A lower inhibition in vivo goes with little suppression. The term IC50 denotes the midpoint of a concentration-inhibition curve.

The values are drawn from patent publication US6610697B1, “Substituted 2-aryl-3-(heteroaryl)-imidazo[1,2-a]pyrimidines, and related pharmaceutical compositions and methods” (Ortho-McNeil Pharmaceutical, Inc., priority 1999, dated 2003).
